Source: patent publication US20160145247A1, “Aminomethyl-Biaryl Derivatives Complement Factor D inhibitors and uses thereof” (NOVARTIS AG, priority 2013, published 2016)

Target: T1, factor D (Homo sapiens, UniProt P00746)
T1 construct: made in house; host or cells: E. coli
Assay: factor D inhibition assay of Biological Example 2
Assay type: biochemical

T1 sequence (P00746 26-253): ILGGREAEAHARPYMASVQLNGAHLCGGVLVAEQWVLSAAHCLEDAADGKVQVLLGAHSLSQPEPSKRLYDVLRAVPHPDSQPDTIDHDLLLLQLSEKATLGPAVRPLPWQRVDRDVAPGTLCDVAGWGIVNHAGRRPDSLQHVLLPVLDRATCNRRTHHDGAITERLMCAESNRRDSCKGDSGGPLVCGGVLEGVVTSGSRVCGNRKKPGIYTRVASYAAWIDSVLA

Row | SMILES | IC50 [nM]
1 | CCC[C@@H](N)c1cccc(-c2cc(COc3ccccc3CC(=O)O)cc(N3CCOCC3)c2)c1F [Example 198-C, (R)-2-(2-((3′-(1-Aminobutyl)-2′-fluoro-5-morpholino-[1,1′-biphenyl]-3-yl)methoxy)phenyl)acetic acid] | 199
2 | CCC[C@@H](N)c1cccc(-c2cc(COc3ccccc3CC(=O)O)cc(NCC3CC3)c2)c1F [Example 199-B] | 69
3 | CCC[C@@H](N)c1cccc(-c2cc(COc3ccccc3CC(=O)O)cc(-c3ccccc3)c2)c1F [Example 200-B, (R)-2-(2-((3-(1-aminobutyl)-2-fluoro-[1,1′:3′,1″-terphenyl]-5′-yl)methoxy)phenyl)acetic acid] | 22
4 | CCC[C@@H](N)c1cccc(-c2cc(COc3ccccc3CC(=O)O)cc(NCCOC)c2)c1 [Example 201, (R)-2-(2-((3′-(1-Aminobutyl)-5-((2-methoxyethyl)amino)-[1,1′-biphenyl]-3-yl)methoxy)phenyl)acetic acid] | 113
5 | CCC[C@@H](N)c1cccc(-c2cc(COc3ccccc3CC(=O)O)cc(C3CC3)c2)c1F [Example 202-B, (R)-2-(2-((3′-(1-Aminobutyl)-5-cyclopropyl-2′-fluoro-[1,1′-biphenyl]-3-yl)methoxy)phenyl)acetic acid] | 33
6 | CCC[C@@H](N)c1cccc(-c2cc(COc3ccccc3CC(=O)O)cc(-c3cnn(C)c3)c2)c1F [Example 203, (R)-2-(2-((3′-(1-Aminobutyl)-2′-fluoro-5-(1-methyl-1H-pyrazol-4-yl)-[1,1′-biphenyl]-3-yl)methoxy)phenyl)acetic acid] | 54
7 | NCc1cccc(-c2cc(COc3ccccc3CC(=O)O)cc(C(Nc3ccccc3)C(F)(F)F)c2)c1 (centres unmarked) [Example 208-C] | 6
8 | NCc1cccc(-c2cc(COc3ccccc3CC(=O)O)cc(-c3cc4ccccc4[nH]3)c2)c1 [Example 209-A] | 3
9 | COCCn1cc(-c2cc(COc3ccccc3CC(=O)O)cc(-c3cccc(CN)c3)c2)cn1 [Example 209-E] | 5
10 | Cc1cc(COc2ccccc2CC(=O)O)cc(-c2cccc([C@@H](C)N)c2F)c1 [Example 210-C, (R)-2-(2-((3′-(1-aminoethyl)-2′-fluoro-5-methyl-[1,1′-biphenyl]-3-yl)methoxy)phenyl)acetic acid] | 12
11 | C[C@@H](N)c1cccc(-c2cc(COc3ccccc3CC(=O)O)c3cn[nH]c3c2)c1F [Example 211-C] | 9
12 | C[C@@H](N)c1cccc(-c2cc(COc3ccccc3CC(=O)O)cc(OCc3ccccn3)c2)c1F [Example 213, (R)-2-(2-((3′-(1-Aminoethyl)-2′-fluoro-5-(pyridin-2-ylmethoxy)-[1,1′-biphenyl]-3-yl)methoxy)phenyl)acetic acid] | 5
13 | C[C@@H](N)c1cccc(-c2cc(COc3ccccc3CC(=O)O)cc(OCCN3CCCC3)c2)c1F [Example 214-G] | 22
14 | COc1cc(COc2ccccc2CC(=O)O)cc(-c2cccc([C@@H](C)N)c2F)c1 [Example 214-I] | 7
15 | C[C@@H](N)c1cccc(-c2cc(COc3ccccc3CC(=O)O)cc(OCc3ncn(C)n3)c2)c1F [Example 214-K] | 15
16 | C[C@@H](N)c1cccc(-c2cc(COc3ccccc3CC(=O)O)cc(OCc3cccnc3)c2)c1F [Example 214-L] | 12
17 | C[C@H](N)c1cccc(-c2cc(COc3ccccc3CC(=O)O)cc(OCc3ccccn3)c2)c1F [Example 214-M] | 20
18 | C[C@H](N)c1cccc(-c2cc(COc3ccccc3CC(=O)O)cc(OCCF)c2)c1F [Example 214-O] | 71
19 | C[C@@H](N)c1cccc(-c2cc(O)cc(COc3ccccc3CC(=O)O)c2)c1F [Example 214-R] | 7
20 | NC(CF)c1cccc(-c2cccc(COc3ccccc3CC(=O)O)c2)c1F (centres unmarked) [Example 215, 2-(2-((3′-(1-amino-2-fluoroethyl)-2′-fluoro-[1,1′-biphenyl]-3-yl)methoxy)phenyl)acetic acid] | 8
21 | C[C@@H](N)c1cccc(-c2cc(CNC3CCOC3)cc(COc3ccccc3CC(=O)O)c2)c1F (some centres unmarked) [Example 216-AG] | 24
22 | C[C@@H]1CN(Cc2cc(COc3ccccc3CC(=O)O)cc(-c3cccc([C@@H](C)N)c3F)c2)C[C@H](C)O1 [Example 216-AH] | 90
23 | C[C@@H](N)c1cccc(-c2cc(COc3ccccc3CC(=O)O)cc(CN3CCCC3)c2)c1F [Example 216-AJ] | 460
24 | N[C@H](CF)c1cccc(-c2cc(COc3ccccc3CC(=O)O)cc(NCC3CC3)c2)c1F [Example 216-A] | 7
25 | N[C@@H](CF)c1cccc(-c2cc(COc3ccccc3CC(=O)O)cc(NCC3CC3)c2)c1F [Example 216-B] | 56
26 | C[C@@H](N)c1cccc(-c2cc(COc3ccccc3CC(=O)O)cc(N(C)CC3CCCC3)c2)c1F [Example 216-F] | 31
27 | C[C@@H](N)c1cccc(-c2cc(COc3ccccc3CC(=O)O)cc(N(C)C[C@@H]3CCCO3)c2)c1F [Example 216-H] | 5
28 | C[C@@H](N)c1cccc(-c2cc(COc3ccccc3CC(=O)O)cc(N(C)C[C@H]3CCCO3)c2)c1F [Example 216-I] | 13

Further lines, results first:

Row | IC50 [nM] | SMILES
29 | 148 | CCC[C@@H](N)c1cccc(-c2cc(COc3ccccc3CC(=O)O)cc(N3CCCC3)c2)c1F [Example 199-A]
30 | 65 | CCC[C@@H](N)c1cccc(-c2cc(COc3ccccc3CC(=O)O)cc(NC[C@@H]3CCCO3)c2)c1F [Example 199-C]
31 | 19 | CNC(c1cc(COc2ccccc2CC(=O)O)cc(-c2cccc(CN)c2)c1)C(F)(F)F (centres unmarked) [Example 208-A]
32 | 27 | CN(C)C(c1cc(COc2ccccc2CC(=O)O)cc(-c2cccc(CN)c2)c1)C(F)(F)F (centres unmarked) [Example 208-B]
33 | 4 | NCc1cccc(-c2cc(COc3ccccc3CC(=O)O)cc(C(NC(=O)c3ccccc3)C(F)(F)F)c2)c1 (centres unmarked) [Example 208-D]
34 | 3 | NCc1cccc(-c2cc(CNCC(F)(F)F)cc(COc3ccccc3CC(=O)O)c2)c1 [Example 208-E]
35 | 9 | CC(NCc1cc(COc2ccccc2CC(=O)O)cc(-c2cccc(CN)c2)c1)C(F)(F)F (centres unmarked) [Example 208-F]
36 | 6 | CN(Cc1cc(COc2ccccc2CC(=O)O)cc(-c2cccc(CN)c2)c1)CC(F)(F)F [Example 208-G]
37 | 4 | Cn1cc(-c2cc(COc3ccccc3CC(=O)O)cc(-c3cccc(CN)c3)c2)cn1 [Example 208-H]
38 | 4 | NCc1cccc(-c2cc(COc3ccccc3CC(=O)O)cc(-c3ccn[nH]3)c2)c1 [Example 209-B]
39 | 5 | CC(C)n1cc(-c2cc(COc3ccccc3CC(=O)O)cc(-c3cccc(CN)c3)c2)cn1 [Example 209-C]
40 | 4 | CC(C)Cn1cc(-c2cc(COc3ccccc3CC(=O)O)cc(-c3cccc(CN)c3)c2)cn1 [Example 209-D]
41 | 10 | C[C@@H](N)c1cccc(-c2cc(COc3ccccc3CC(=O)O)cc(OCCN3CCOCC3)c2)c1F [Example 214-A]
42 | 5 | C[C@@H](N)c1cccc(-c2cc(COc3ccccc3CC(=O)O)cc(OCc3nccs3)c2)c1F [Example 214-B]
43 | 8 | C[C@@H](N)c1cccc(-c2cc(COc3ccccc3CC(=O)O)cc(OCCF)c2)c1F [Example 214-C]
44 | 18 | C[C@@H](N)c1cccc(-c2cc(COc3ccccc3CC(=O)O)cc(OCC3CCOCC3)c2)c1F [Example 214-D]
45 | 8 | C[C@@H](N)c1cccc(-c2cc(COc3ccccc3CC(=O)O)cc(OCc3ccn(C)n3)c2)c1F [Example 214-E]
46 | 3 | C[C@@H](N)c1cccc(-c2cc(COc3ccccc3CC(=O)O)cc(OCc3ccncc3)c2)c1F [Example 214-F]
47 | 700 | C[C@@H](N)c1cccc(-c2cc(COc3ccccc3CC(=O)O)cc(OCC3CCCC3)c2)c1F [Example 214-H]

Row | IC50 [nM] | SMILES
48 | 9 | C[C@@H](N)c1cccc(-c2cc(COc3ccccc3CC(=O)O)cc(OCc3ccncn3)c2)c1F [Example 214-J]
49 | 5 | C[C@H](N)c1cccc(-c2cc(COc3ccccc3CC(=O)O)cc(OCc3nccs3)c2)c1F [Example 214-N]
50 | 14 | C[C@H](N)c1cccc(-c2cc(COc3ccccc3CC(=O)O)cc(OCc3cncn3C)c2)c1F [Example 214-P]
51 | 10 | C[C@@H](N)c1cccc(-c2cc(COc3ccccc3CC(=O)O)cc(OCc3cncn3C)c2)c1F [Example 214-Q]
52 | 32 | C[C@@H](N)c1cccc(-c2cc(NCC3CC3)cc(N(C)Cc3ccccc3CC(=O)O)c2)c1F [Example 216-AA]
53 | 55 | C[C@@H](N)c1cccc(-c2cc(NC[C@@H]3CCCO3)cc(N(C)Cc3ccccc3CC(=O)O)c2)c1F [Example 216-AB]
54 | 33 | C[C@@H](N)c1cccc(-c2cc(NCC(F)F)cc(N(C)Cc3ccccc3CC(=O)O)c2)c1F [Example 216-AC]
55 | 20 | C[C@@H](N)c1cccc(-c2cc(CNC3CC3)cc(COc3ccccc3CC(=O)O)c2)c1F [Example 216-AD]
56 | 53 | C[C@@H](N)c1cccc(-c2cc(COc3ccccc3CC(=O)O)cc(CN3CCOCC3)c2)c1F [Example 216-AE]
57 | 16 | C[C@@H](N)c1cccc(-c2cc(CNc3ccn(C)n3)cc(COc3ccccc3CC(=O)O)c2)c1F [Example 216-AF]
58 | 24 | C[C@@H](N)c1cccc(-c2cc(COc3ccccc3CC(=O)O)cc(CN3CCCOCC3)c2)c1F [Example 216-AI]
59 | 6 | C[C@H](N)c1cccc(-c2cc(COc3ccccc3CC(=O)O)cc(NCC3CCCC3)c2)c1F [Example 216-C]
60 | 2 | C[C@@H](N)c1cccc(-c2cc(COc3ccccc3CC(=O)O)cc(NCC3CCCC3)c2)c1F [Example 216-D]
61 | 6 | NC(CF)c1cccc(-c2cc(COc3ccccc3CC(=O)O)cc(NCC3CCCC3)c2)c1F (centres unmarked) [Example 216-E]
62 | 7 | C[C@@H](N)c1cccc(-c2cc(COc3ccccc3CC(=O)O)cc(N(C)CC3CCCO3)c2)c1F (some centres unmarked) [Example 216-G]
63 | 3 | CCN(C[C@@H]1CCCO1)c1cc(COc2ccccc2CC(=O)O)cc(-c2cccc([C@@H](C)N)c2F)c1 [Example 216-J]
64 | 2 | C[C@@H](N)c1cccc(-c2cc(COc3ccccc3CC(=O)O)cc(NCCF)c2)c1F [Example 216-K]
65 | 24 | C[C@@H](N)c1cccc(-c2cc(COc3ccccc3CC(=O)O)cc(N(C)CCF)c2)c1F [Example 216-L]
